Assay: Specific surface area (SSA), BET nitrogen adsorption
Type: physicochemical
Settings: 7 point BET in the range 0.05-0.20 P/Po, triplicate determination, Palbociclib Form A obtained by Example 6
Procedure: Specific Surface Area (SSA) Method
SSA measurement based on BET-nitrogen adsorption were carried out using a Micromeritics TriStar II Plus 3030 specific surface area analyzer together with Micromeritics VacPrep 061 degassing station.
Software version: Microactive for TriStar II Plus v 2.03
Sample tube: ½″ round bottom cell with glass filler rods
Sample masses*: Approximately % full cell
Sample preparation: VacPrep 061, nitrogen stream
Out gassing conditions: 16 hrs at 25° C. under vacuum
Isothermal collection points: 11 point BET in the range 0.05-0.30 P/Po
Isothermal data analysis range: 7 point BET in the range 0.05-0.20 P/Po
Outgas test duration: 180 s
Equilibration interval: 10 s
Equilibration timeout: 600 s
Calculations and Reporting: The specific surface area was reported in the range 0.05-0.20 P/Po using 7 point BET from a triplicate determination.

SSA (specific surface area): 4.9 m^2/g
Structure (SMILES): CC(=O)c1c(C)c2cnc(Nc3ccc(N4CCNCC4)cn3)nc2n(C2CCCC2)c1=O [Palbociclib, 6-Acetyl-8-cyclopentyl-5-methyl-2-[[5-(1-piperazinyl)-2-pyridinyl]amino]pyrido[2,3-d]pyrimidin-7(8H)-one]

Reference: patent US11332467B2, “Solid state forms of palbociclib dimesylate” (PLANTEX LTD., priority 2016, dated 2022)
